These results are taken from article PMC7283928, “In vitro Mechanistic Exploration of Novel Spiropyrrolidine Heterocyclic Hybrids as Anticancer Agents” (Frontiers in Chemistry, 2020).

Structures are written as SMILES. Read-outs that look alike come from different tables or passages of the source.

For series [1], the system named is Jurkat human T lymphocyte cells. Kind of series: MTT cell viability and proliferation assay, Jurkat cells. To be noted: for IC50: Homo sapiens, MTT. It is filed as cell-based. Here is the method: (§1) In order to study the molecular biology effects of synthesized spiropyrrolidine heterocyclic hybrids, we have used the in vitro toxicology tests and for that, two different cell types, each of cancer and non-cancer origin were employed. The non-cancer cell lines include the L929 mouse fibroblasts and MCF10 breast cells, while the cancer cell lines are A549 human alveolar basal epithelial cells and Jurkat human T lymphocyte cells. […] All the biological studies were carried by selecting Camptothecin (CPT) as a positive control and the cells of no treatment as the negative control. The reason for selecting this particular compound as a positive control is that it is a well-known anticancer agent and acts by the mechanism of topoisomerase I inhibition along with the DNA cleavage, subsequent inhibition of litigation, and finally leads to DNA strand breaks. The detailed procedures for the cell culturing and assay protocols were mentioned elaborately in our earlier publications (Bwatanglang et al., [2016a],[b]; Kumar et al., [2018]). Each experiment was repeated thrice and the results expressed as the mean ± standard deviation of all the data values. From the graph, the ^* and ^** corresponds to p < 0.05 and p < 0.01 vs. the untreated-control measurements.
(§2) Also, the loss of viability seems to be increased with an increase in the concentration and incubation period and this provides the preliminary information that the tested compounds are maintaining some levels of therapeutic behavior toward the cancer cells and if it can be guided carefully, can lead to the anticancer activity. […] This difference in the sensitivity of two cancer cells to the same testing compound can be attributed to the changes in the resistive response of each cell types which is supported by the intracellular protein mechanisms (Mohammad et al., [2014]; Bwatanglang et al., [2017]). Since the amount of intracellular proteins secreted by the cells are unique to each individual cell type and so in that way some cells may react very fast as compared to the others. Also, the efficiency of any chemotherapeutic agent is decided by its ability to reduce the cell count at the earliest possible time and in that way we have identified the A549 cells to be the highly responsive cell type to the compound 5e over a 24 h period as compared to the other compounds, cells, and time periods. The visual observation of cells by means of microscopic observation also be confirming for a decrease in the number of cells for the compound 5e treated cells as against the positive control of CPT (30 μM) and negative control of without any treatment (Figures S11, S11a). […] In a general way, our interest is with the therapeutic agent of higher efficiency at the shortest exposure period and so we carried the following mechanistic studies linked to the cell death for the compound 5e at the 24 h exposure period only.

The subject of series [2] is A549 human alveolar basal epithelial cells. Kind of series: MTT cell viability and proliferation assay, A549 cells. It is filed as cell-based. As for the experimental part: as §1, §2
The subject of series [3] is caspases in A549 cells. Description: Caspase activity by fluorescence microscopy in A549 cells. It is filed as cell-based, human. The following applies: A549, 24 h, 5e at IC50, compared with CPT treated cells (Figure 4B). As for the experimental part:
as §1, with “The detailed procedures for the cell culturing and assay protocols were mentioned elaborately in our earlier publications (Bwatanglang et al., [2016a],[b]; Kumar et al., [2018]).” left out, “From the graph, the ^* and ^** corresponds to p < 0.05 and p < 0.01 vs. the untreated-control measurements.” left out
Based on the results provided by the apoptotic assay, compound 5e was further tested toward the role of caspases as these are the proteins which get released in response to the specific death stimuli. […] Similarly, the observation of no such green fluorescence in the cytoplasm of cells shown in Figure 4A means that there is no initiation of such pathways in that particular culture.

Series [4] deals with A549 cells. Description: Apoptosis assay (PI / Annexin V-FITC) in A549 cells. To be noted: for live cells: lower left quadrant; for apoptotic cells: lower right quadrant; for late apoptotic or early necrosis cells: upper right quadrant; for cells experiencing the apoptotic pathway: A549, 48 h incubation (Figure S12). It is filed as cell-based, human. As for the experimental part: as §1
The compound 5e induced apoptotic pathway for A549 treated cells over a 24 h period is compared against the positive (CPT, 30 μM) and negative controls and the results are shown in Figure 3. Similarly, the apoptosis study over the 48 h exposure period is shown in the supporting information of Figure S12. As compared to the behavior of cells shown in Figures 3A-1,B-1, the compound 5e treated cells (C-1) are experiencing a significant amount of apoptotic pathway. […] These numbers for the compound 5e treated cells are getting shifted to 39% of live cells, 40% apoptotic, and 18% late apoptotic or early necrosis pathways. The observation of only 9% apoptotic cells for the CPT treated cells while 40% for the 5e treated cells provides a preliminary indication of the way of handling the cancer cells by the compound 5e. Since the CPT acts directly onto the cancer cells and responsible for the accidental or irreversible pathway of reducing the cancer cell number and however, the compound 5e works in a systematic way and induces the cancer cell death almost similar to CPT. […] Since the cells which are experiencing the apoptotic pathway can be reversible and in that way the healthy normal cells can be reverted to their normal stage and at the same time the cancer cells can be molded to the late apoptotic or early necrosis pathways by applying some physiological changes to the cells.
Figure 3 Comparison of the apoptosis assay results for 5e treated cells along with the CPT treated and untreated cells over 24 h period for A549 cells. From the figure, A-1 & A-2 corresponds to the negative control, B-1 & B-2 for the positive control of CPT, and C-1 & C-2 for our testing sample 5e.

The nature of series [5]: MTT cell viability assay, non-cancer MCF10 cells. It is filed as cell-based. The following applies: human, MCF10 breast cells (non-cancer). Here is the method:
as §1, with “measurements. […]” for “measurements.”

Series [6] is described as follows: MTT cell viability assay, non-cancer L929 cells. It is filed as cell-based. To be noted: mouse, L929 mouse fibroblast cells (non-cancer). As for the experimental part: as §1, with “measurements. […]” for “measurements.”
[7] abbreviates: 24 h incubation, read-out: IC50 μM (24 h) Jurkat.
[8] abbreviates: 48 h incubation, read-out: IC50 μM (48 h) Jurkat.
The mark [9] stands for this setting: 24 h incubation, read-out: IC50 μM (24 h) A549.
Where [10] appears, read: 48 h incubation, read-out: IC50 μM (48 h) A549.
[11] abbreviates: A549, 24 h, 5e at IC50 (55 μM), CPT 30 μM.

`CN1C(Cc2ccc(O)cc2)C([N+](=O)[O-])C(c2ccc(Br)cc2)C12C(=O)c1cccc3cccc2c13` (stereo not shown) [C00002]: the IC50 in series [1] (setting [7]) came out at 82.4 ± 4 µM; in series [1] (setting [8]), 52.2 ± 3.5 µM; in series [2] (setting [9]) it was 79.5 ± 3.15 µM; in series [2] (setting [10]), 36.2 ± 4.5 µM.
On to `Cc1ccc(C2C([N+](=O)[O-])C(Cc3ccc(O)cc3)N(C)C23C(=O)c2cccc4cccc3c24)cc1` (stereo not shown) [C00004], for which the concentration for half-maximal inhibition (IC50) in series [1] (setting [7]) was 78.2 ± 2.6 µM; in series [1] (setting [8]), 47.5 ± 3.8 µM; in series [2] (setting [9]), 82.1 ± 2.55 µM; in series [2] (setting [10]) it was 70.2 ± 2.8 µM.
As for `CN1C(Cc2ccc(O)cc2)C([N+](=O)[O-])C(c2cccc([N+](=O)[O-])c2)C12C(=O)c1cccc3cccc2c13` (stereo not shown) [5f, Spiro[acenaphthene-2′.2-pyrrolidin]-1′-one], the “loss of cell viability” value in series [1] (highest concentration of 100 μM, 48 h) worked out at 90%.
In the case of `CN1C(Cc2ccc(O)cc2)C([N+](=O)[O-])C(c2ccc(Cl)cc2)C12C(=O)c1cccc3cccc2c13` (stereo not shown) [C00003], the half-inhibitory concentration (IC50) in series [1] (setting [7]) was 63.2 ± 3.2 µM; in series [1] (setting [8]), 59.5 ± 4.1 µM; in series [2] (setting [9]), 77.3 ± 4.56 µM; in series [2] (setting [10]) it was 52.3 ± 2.2 µM.
With `COc1ccc(C2C([N+](=O)[O-])C(Cc3ccc(O)cc3)N(C)C23C(=O)c2cccc4cccc3c24)cc1` (stereo not shown) [C00005], the IC50 is 81.2 ± 3.1 µM in series [1] (setting [7]) and 61.2 ± 4.6 µM in series [1] (setting [8]).
Turning to `CN1C(Cc2ccc(O)cc2)C([N+](=O)[O-])C(c2cccc([N+](=O)[O-])c2)C12C(=O)c1cccc3cccc2c13` (stereo not shown) [C00006], the IC50 is 92.5 ± 2.8 µM in series [1] (setting [7]), 62.5 ± 4.4 µM in series [1] (setting [8]), 70.7 ± 3.45 µM in series [2] (setting [9]) and 41.2 ± 2.4 µM in series [2] (setting [10]).
Turning to `COc1ccc(C2C([N+](=O)[O-])C(Cc3ccc(O)cc3)N(C)C23C(=O)c2cccc4cccc3c24)cc1` (stereo not shown) [5e, Spiro[acenaphthene-2′.2-pyrrolidin]-1′-one], in series [3], the “caspase release (green fluorescence in cytoplasm)” value is “higher than the corresponding cells shown in Figure 4B”. Besides, in series [4] (setting [11]), the live cells came out at 39%, the apoptotic cells stood at 40% and the “late apoptotic or early necrosis cells” value was 18%. In series [4], the “cells experiencing the apoptotic pathway” value was 88%. Further, in series [2] (setting [9]), the IC50 came to 55.2 ± 2.15 µM. For the same compound, the IC50 in series [2] (setting [10]) turned out to be 20.5 ± 3.6 µM.
As for `CC[C@@]1(O)C(=O)OCc2c1cc1n(c2=O)Cc2cc3ccccc3nc2-1` [CPT, Camptothecin], in series [5], the mortality at 30 μM was ~50%. Moreover, in series [4] (setting [11]), the “M2 (cells experiencing the apoptotic pathway)” value is 48%, the live cells amounted to 45%, the apoptotic cells worked out at 9% and the “late apoptotic or early necrosis cells” value was determined as 36%. For the same compound, the “cells experiencing the apoptotic pathway” value in series [4] is given as 63%. Besides, in series [6], the mortality at 30 μM is ~50%.
On to `CN1C(Cc2ccc(O)cc2)C([N+](=O)[O-])C(c2ccccc2)C12C(=O)c1cccc3cccc2c13` (stereo not shown) [C00001], for which the IC50 in series [1] (setting [7]) worked out at 65.6 ± 2.1 µM; in series [1] (setting [8]), 31.4 ± 2.3 µM; in series [2] (setting [9]), 84.2 ± 4.2 µM; in series [2] (setting [10]), 68.5 ± 3.1 µM.
